According to patent US9034871B2, “Compounds for Alzheimer's disease” (priority 2004, dated 2015):
Where two headings read alike, the source gives them in different places.

Test system: Aβ42
Assay: Detection of secreted Aβ42 with Biosource ELISA kit in H4 cells expressing APP695
Format: cell-based
Conditions: read-out: Ab42 IC50
Experimental: The present invention provides compositions and methods for lowering Aβ42 levels. To test whether compounds and compositions are capable of modulating Aβ levels, a sandwich enzyme-linked immunosorbent assay (ELISA) is employed to measure secreted Aβ (Aβ42 and/or Aβ40) levels. In this example, H4 cells expressing wide type APP695 are seeded at 200,000 cells/per well in 6 well plates, and incubated at 37 degree C. with 5% CO2 overnight. Cells are treated with 1.5 ml medium containing vehicle (DMSO) or a test compound at 1.25 μM, 2.5 μM, 5.0 μM and 10.0 μM (as well as other concentration if desirable) concentration for 24 hours or 48 hours. The supernatant from treated cells is collected into eppendorf tubes and frozen at −80 degree C. for future analysis.
The amyloid peptide standard is reconstituted and frozen samples are thawed. The samples and standards are diluted with appropriate diluents and the plate is washed 4 times with Working Wash Buffer and patted dry on a paper towel. 100 μL per well of peptide standards, controls, and dilutions of samples to be analyzed is added. The plate is incubated for 2 hours while shaking on an orbital plate shaker at RT. The plate is then washed 4 times with Working Wash Buffer and patted dry on a paper towel. Detection Antibody Solution is poured into a reservoir and 100 μL /well of Detection Antibody Solution is immediately added to the plate. The plate is incubated at RT for 2 hours while shaking and then washed four times with Working Wash Buffer and patted dry on a paper towel. Secondary Antibody Solution is then poured into a reservoir and 100 μL /well of Secondary Antibody Solution is immediately added to the plate. The plate is incubated at RT for 2 hours with shaking, washed 5 times with Working Wash Buffer, and patted dry on a paper towel.
100 μL of stabilized chromogen is added to each well and the liquid in the wells begins to turn blue. The plate is incubated for 30 minutes at room temperature and in the dark. 100 μL of stop solution is added to each well and the plate is tapped gently to mix resulting in a change of solution color from blue to yellow. The absorbance of each well is read at 450 nm having blanked the plate reader against a chromogen blank composed of 100 μL each of stabilized chromogen and stop solution. The plate is read within 2 hours of adding the stop solution. The absorbance of the standards is plotted against the standard concentration and the concentrations of unknown samples and controls are calculated.
These compounds were synthesized via the indicated synthetic route. Ab42 IC50 (uM) refers to IC50 value for Ab42 lowering in e.g., the assay described in Example 6.

[1] = Ab42 lowering, cell based assay
[2] = IC50 value for Ab42 lowering in e.g. the assay described in Example 6

Row | Structure (SMILES) | IC50 [1] [µM] | IC50 [2] [µM]
1 | O=C(O)c1ccc(-n2c(-c3cc4ccccc4o3)cc3c2CC(C(F)(F)F)CC3)o1 (stereo not drawn) [5-(2-benzofuran-2-yl-6-trifluoromethyl-4,5,6,7-tetrahydroindol-1-yl)-furan-2-carboxylic acid] | 23 | –
2 | O=C(O)c1ccc(-n2c(-c3ccc(Cl)c(Cl)c3)cc3c2CCCC3C(F)(F)F)o1 (stereo not drawn) [5-[2-(3,4-dichlorophenyl)-4-trifluoromethyl-4,5,6,7-tetrahydroindol-1-yl]-furan-2-carboxylic acid] | 7.36 | –
3 | O=C(O)c1coc(Cn2c(-c3cc(-c4ccccc4)no3)cc3c4ccccc4ccc32)c1 [5-[2-(3-phenylisoxazol-5-yl)-benzo[e]indol-3-ylmethyl] furan-3-carboxylic acid] | > 100 | –
4 | CCC(C)(C)C1CCc2c(cc(-c3ccccc3)n2-c2nc(CC(=O)O)cs2)C1 (stereo not drawn) [{2-[5-(1,1-dimethylpropyl)-2-phenyl-4,5,6,7-tetrahydroindol-1-yl]-thiazol-4-yl} acetic acid] | 6.5 | –
5 | O=C(O)C1CCCC(n2c(-c3ccccc3)cc3c4ccccc4ccc32)C1 (stereo not drawn) [Compound 66, 3-(2-phenylbenzo[e]indol-3-yl) cyclohexane carboxylic acid] | – | 54
6 | CC1CCc2cc(-c3ccccc3)n(-c3ccc(C(=O)O)o3)c2C1 (stereo not drawn) [5-(6-methyl-2-phenyl-4,5,6,7-tetrahydroindol-1-yl) furan-2-carboxylic acid] | > 100 | –
7 | O=C(O)c1ccc(-n2c(-c3cc(-c4ccccc4)no3)cc3c4ccccc4ccc32)o1 [5-[2-(3-phenylisoxazol-5-yl)-benzo[e]indol-3-yl] furan-2-carboxylic acid] | 33 | –
8 | O=C(O)c1cccc(-n2c(-c3ccccc3)cc3c2CCC(c2ccccc2)C3)c1 (stereo not drawn) [Compound 71, 3-(2,5-diphenyl 4,5,6,7-tetrahydroindol-1-yl) benzoic acid] | – | 50
9 | O=C(O)c1cccc(-n2c(-c3ccccn3)cc3c4ccccc4ccc32)c1 [3-(2-pyridin-2-yl-benzo[e]indol-3-yl) benzoic acid] | 79 | –
10 | COc1ccc(-c2cc3c(n2-c2nc(C(=O)O)cs2)CCC(C(F)(F)F)C3)c(OC)c1 (stereo not drawn) [2-[2-(2,4-dimethoxyphenyl)-5-trifluoromethyl-4,5,6,7-tetrahydroindol-1-yl]-thiazole-4-carboxylic acid] | > 100 | –
11 | O=C(O)CCCc1ccc(-n2c(-c3ccc(-c4ccc(Cl)cc4Cl)o3)cc3c4ccccc4ccc32)cc1 [4-(4-{2-[5-(2 4-dichlorophenyl)-furan-2-yl]-benzo[e]indol-3-yl}-phenyl) butyric acid] | 17 | –
12 | CC(C)(C)C1CCc2c(cc(-c3ccccc3)n2-c2ccc(C(=O)O)o2)C1 (stereo not drawn) [5-(5-tertButyl-2-phenyl-4,5,6,7-tetrahydroindol-1-yl) furan-2-carboxylic acid] | 3.7 | –
13 | O=C(O)c1ccc(-n2c(-c3cc4ccccc4o3)cc3c4ccccc4ccc32)o1 [5-(2-benzofuran-2-yl-benzo[e]indol-3-yl) furan-2-carboxylic acid] | 22 | –
14 | COC(=O)c1ccc(-n2c(-c3ccccc3)cc3c2CCC(C(C)(C)C)C3)o1 (stereo not drawn) [5-(5-tertButyl-2-phenyl-4,5,6,7-tetrahydroindol-1-yl) furan-2-carboxylic acid methyl ester] | > 100 | –
15 | COc1ccc(-c2cc3c(n2-c2nc(C(=O)O)cs2)CCC(C(F)(F)F)C3)cc1OC (stereo not drawn) [2-[2-(3,4-dimethoxyphenyl)-5-trifluoromethyl-4,5,6,7-tetrahydroindol-1-yl]-thiazole-4-carboxylic acid] | > 100 | –
16 | O=C(O)c1cccc(-n2c(-c3ccccc3)cc3ccccc32)c1 [Compound 17, 3-(2-phenylindol 1-yl) benzoic acid] | – | 55
17 | O=C(O)CCc1cccc(-n2c(-c3ccccc3)cc3c2CCCC3)c1 [Compound 90, 3-[3-(2-phenyl-4,5,6,7-tetrahydroindol-1-yl)-phenyl] propionic acid] | – | 54
18 | O=C(O)CCCc1ccc(-n2c(-c3ccc4c(c3)OCO4)cc3c4ccccc4ccc32)cc1 | 8.9 | –
19 | O=C(O)c1cccc(-n2c(-c3ccsc3)cc3c4ccccc4ccc32)c1 [3-(2-thiophen-3-yl-benzo[e]indol-3-yl) benzoic acid] | 13.2 | –
20 | O=C(O)c1ccc(-n2c(-c3ccccc3)cc3c4ccccc4ccc32)o1 [5-(2-phenylbenzo[e]indol-3-yl)furan-2-carboxylic acid] | 22 | –
21 | O=C(O)c1ccc(-n2c(-c3ccccc3)cc3c2CCC(C2CCCCC2)C3)o1 (stereo not drawn) [5-(5-cyclohexyl-2-phenyl-4,5,6,7-tetrahydroindol-1-yl)-furan-2-carboxylic acid] | 40 | –
22 | O=C(O)c1ccc(-n2c(-c3ccc(Cl)c(Cl)c3)cc3c2CC(C(F)(F)F)CC3)o1 (stereo not drawn) [5-[2-(3,4-dichlorophenyl)-6-trifluoromethyl-4,5,6,7-tetrahydroindol-1-yl]-furan-2-carboxylic acid] | 8.9 | –
23 | CC1CCc2c(cc(-c3ccccc3)n2-c2cccc(CCC(=O)O)c2)C1 (stereo not drawn) [Compound 88, 3-[3-(5-methyl-2-phenyl-4,5,6,7-tetrahydroindol-1-yl)-phenyl] propionic acid] | – | 27
24 | O=C(O)c1cccc(-n2nc(-c3ccccc3)cc2-c2ccccc2)c1 [3-(3,5-diphenyl-pyrazol-1-yl)-benzoic acid] | > 100 | –

Further lines, results first:

Row | IC50 [1] [µM] | IC50 [2] [µM] | Structure (SMILES)
25 | 2.2 | – | O=C(O)c1cccc(-n2c(-c3cc(-c4ccccc4)no3)cc3c2CCc2ccccc2-3)c1 [drawing 1709]
26 | > 100 | – | O=C(O)c1coc(Cn2c(-c3cc(-c4ccccc4)no3)cc3c2CCc2ccccc2-3)c1 [5-[2-(3-phenylisoxazol-5-yl)-4,5-dihydrobenzo[e]indol-3-ylmethyl] furan-3-carboxylic acid]
27 | 56 | – | c1cc(-c2nn[nH]n2)cc(-n2c(-c3ccc4c(c3)OCO4)cc3c4ccccc4ccc32)c1 [2-benzo[1,3]dioxol-5-yl-3-[3-(2H-tetrazol-5-yl)-phenyl]-3H-benzo[e]indole]
28 | 70 | – | O=C(O)c1cccc(-n2c(-c3ccccn3)cc3c2CCc2ccccc2-3)c1 [3-(2-pyridin-2-yl-4,5-dihydrobenzo[e]indol-3-yl) benzoic acid]
29 | > 100 | – | c1cncc(-c2cc3c(n2-c2cccc(-c4nn[nH]n4)c2)CCc2ccccc2-3)c1 [2-pyridin-3-yl-3-[3-(2H-tetrazol-5-yl)-phenyl]-4,5-dihydro-3H-benzo[e]indole]
30 | 73 | – | c1cc(-c2nn[nH]n2)cc(-n2c(-c3ccncc3)cc3c2CCc2ccccc2-3)c1 [2-pyridin-4-yl-3-[3-(2H-tetrazol-5-yl)-phenyl]-4,5-dihydro-3H-benzo[e]indole]
31 | 70.8 | – | O=C(O)c1cccc(-n2c(-c3ccccc3)cc3c2CC(c2ccccn2)CC3)c1 (stereo not drawn) [3-(2-phenyl-6-pyridin-2-yl-4,5,6,7-tetrahydroindol-1-yl) benzoic acid]
32 | – | 35 | O=C(O)CCCn1c(-c2ccccc2)cc2c1CCc1ccccc1-2 [Compound 67, 4-(2-phenyl-4,5-dihydrobenzo[e]indol-3-yl) butyric acid]
33 | 9.3 | – | c1cc(-c2nn[nH]n2)cc(-n2c(-c3cc4ccccc4o3)cc3c2CCc2ccccc2-3)c1 [2-benzofuran-2-yl-3-[3-(2H-tetrazol-5-yl)-phenyl]-4,5-dihydro-3H-benzo[e]indole]
34 | 18 | – | O=C(O)c1cccc(-n2c(-c3ccc4c(c3)OCO4)cc3c2CCc2ccccc2-3)c1 [3-(2-benzo[1,3]dioxol-5-yl-4,5-dihydrobenzo[e]indol-3-yl) benzoic acid]
35 | – | 45 | O=C(O)c1ccc(-c2cc3c(n2-c2ccccc2)CCc2ccccc2-3)cc1 [Compound 69, 4-(3-phenyl-4,5-dihydro-3H-benzo[e]indol-2-yl) benzoic acid]
36 | 43 | – | c1ccc(-c2cc3c(n2-c2cccc(-c4nn[nH]n4)c2)CCc2ccccc2-3)nc1 [2-pyridin-2-yl-3-[3-(2H-tetrazol-5-yl)-phenyl]-4,5-dihydro-3H-benzo[e]indole]
37 | 31 | – | c1cc(-c2nn[nH]n2)cc(-n2c(-c3ccsc3)cc3c4ccccc4ccc32)c1 [3-[3-(2H-tetrazol-5-yl)-phenyl]-2-thiophen-3-yl-3H benzo[e]indole]
38 | 8.8 | – | O=C(O)CCCc1ccc(-n2c(-c3ccc4c(c3)OCO4)cc3c2CCc2ccccc2-3)cc1 [4-[4-(2-benzo[1,3]dioxol-5-yl-dihydrobenzo[e]indol-3-yl)-phenyl] butyric acid]
39 | – | 24 | c1ccc(-c2cc3c(n2-c2cccc(-c4nn[nH]n4)c2)CCc2ccccc2-3)cc1 [Compound 63, 2-phenyl-3-[3-(2H-tetrazol-5-yl)-phenyl]-4,5-dihydro-3H-benzo[e]indole]
